Assay results: PMC4051630, “A Comparison of Protein Kinases Inhibitor Screening Methods Using Both Enzymatic Activity and Binding Affinity Determination” (PLoS ONE, 2014)

How the values were obtained:
AKT3 Catalytic Domain [1] = target: T1, AKT3 Catalytic Domain (Homo sapiens, UniProt Q9Y243); assay: Caliper mobility shift kinase activity assay; format: biochemical; conditions: AKT3 CD (122–479); read-out: ATP Km
T1 construct: AKT3 (Q9Y243); CD; His-tag; made in house; host or cells: Escherichia coli

CDK2 + Cyclin A [2] = target: T2, CDK2 + Cyclin A (Homo sapiens, UniProt P24941); assay: Caliper mobility shift kinase activity assay; format: biochemical; conditions: CDK2 with CCNA2 (Cyclin A); read-out: ATP Km
T2 construct: CDK2 (P24941); 1–299; His-tag; made in house; host or cells: Escherichia coli

CDK2 + Cyclin E [3] = target: T3, CDK2 + Cyclin E (Homo sapiens, UniProt P24941); assay: Caliper mobility shift kinase activity assay; format: biochemical; conditions: CDK2 with CCNE1 (Cyclin E); read-out: ATP Km
T3 construct: CDK2 (P24941); 1–299; His-tag; made in house; host or cells: Escherichia coli

CHK2 Catalytic Domain [4] = target: T4, CHK2 Catalytic Domain (Homo sapiens, UniProt O96017); assay: Caliper mobility shift kinase activity assay; format: biochemical; conditions: CHK2 CD; read-out: ATP Km
T4 construct: For all of them, we expressed and purified the catalytic domain separately; His-tag; made in house; host or cells: Escherichia coli

DMPK Catalytic Domain [5] = target: T5, DMPK Catalytic Domain (Homo sapiens, UniProt Q09013); assay: Caliper mobility shift kinase activity assay; format: biochemical; conditions: DMPK CD; read-out: ATP Km
T5 construct: For all of them, we expressed and purified the catalytic domain separately; His-tag; made in house; host or cells: Escherichia coli
T5 sequence (Q09013 71-339 limits assumed): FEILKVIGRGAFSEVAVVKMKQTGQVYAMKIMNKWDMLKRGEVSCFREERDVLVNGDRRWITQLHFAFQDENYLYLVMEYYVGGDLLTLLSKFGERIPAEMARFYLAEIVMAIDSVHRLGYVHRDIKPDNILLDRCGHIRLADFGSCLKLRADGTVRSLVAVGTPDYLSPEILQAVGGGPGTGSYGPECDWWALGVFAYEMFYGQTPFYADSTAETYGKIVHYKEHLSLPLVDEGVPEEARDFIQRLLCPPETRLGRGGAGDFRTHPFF

FES Catalytic Domain [6] = target: T6, FES Catalytic Domain (Homo sapiens, UniProt P07332); assay: Caliper mobility shift kinase activity assay; format: biochemical; conditions: FES CD; read-out: ATP Km
T6 construct: For all of them, we expressed and purified the catalytic domain separately; His-tag; made in house; host or cells: Escherichia coli

FES Catalytic Domain+SH2 [7] = target: T7, FES Catalytic Domain+SH2 (Homo sapiens, UniProt P07332); assay: Caliper mobility shift kinase activity assay; format: biochemical; conditions: FES CD+SH2; read-out: ATP Km
T7 construct: for 8, we also made a longer version containing one or more additional domains; His-tag; made in house; host or cells: Escherichia coli

PAK4 Catalytic Domain [8] = target: T8, PAK4 Catalytic Domain (Homo sapiens, UniProt O96013); assay: Caliper mobility shift kinase activity assay; format: biochemical; conditions: PAK4 CD; read-out: ATP Km
T8 construct: For all of them, we expressed and purified the catalytic domain separately; His-tag; made in house; host or cells: Escherichia coli
Method: (§1) This ensures comparability of compound potency between the kinases. […] […].
(§2) […]. […] […].
(§3) IC50 was determined once for each compound-kinase combination.

[9] = target: T9, PAK4 Catalytic Domain+PBD (Homo sapiens, UniProt O96013); assay: Caliper mobility shift kinase activity assay; format: biochemical; conditions: PAK4 CD+PBD; read-out: ATP Km
T9 construct: for 8, we also made a longer version containing one or more additional domains; His-tag; made in house; host or cells: Escherichia coli
Method: as §1, §2, §3

PAK7 Catalytic Domain [10] = target: T10, PAK7 Catalytic Domain (Homo sapiens, UniProt Q9P286); assay: Caliper mobility shift kinase activity assay; format: biochemical; conditions: PAK7 CD; read-out: ATP Km
T10 construct: For all of them, we expressed and purified the catalytic domain separately; His-tag; made in house; host or cells: Escherichia coli

STK3 Catalytic Domain [11] = target: T11, STK3 Catalytic Domain (Homo sapiens, UniProt Q13188); assay: Caliper mobility shift kinase activity assay; format: biochemical; conditions: STK3 CD; read-out: ATP Km
T11 construct: For all of them, we expressed and purified the catalytic domain separately; His-tag; made in house; host or cells: Escherichia coli
T11 sequence (Q13188 27-278 limits assumed): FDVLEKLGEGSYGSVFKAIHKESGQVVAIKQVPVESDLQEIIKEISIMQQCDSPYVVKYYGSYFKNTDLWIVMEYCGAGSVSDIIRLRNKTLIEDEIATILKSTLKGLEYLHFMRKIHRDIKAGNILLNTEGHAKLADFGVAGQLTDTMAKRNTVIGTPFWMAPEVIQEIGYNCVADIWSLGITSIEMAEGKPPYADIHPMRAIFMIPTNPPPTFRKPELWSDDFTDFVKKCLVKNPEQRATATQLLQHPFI

[12] = target: T12, STK3 Catalytic domain+SARAH (Homo sapiens, UniProt Q13188); assay: Caliper mobility shift kinase activity assay; format: biochemical; conditions: STK3 CD+SARAH; read-out: ATP Km
T12 construct: for 8, we also made a longer version containing one or more additional domains; His-tag; made in house; host or cells: Escherichia coli
T12 sequence (Q13188 1-491): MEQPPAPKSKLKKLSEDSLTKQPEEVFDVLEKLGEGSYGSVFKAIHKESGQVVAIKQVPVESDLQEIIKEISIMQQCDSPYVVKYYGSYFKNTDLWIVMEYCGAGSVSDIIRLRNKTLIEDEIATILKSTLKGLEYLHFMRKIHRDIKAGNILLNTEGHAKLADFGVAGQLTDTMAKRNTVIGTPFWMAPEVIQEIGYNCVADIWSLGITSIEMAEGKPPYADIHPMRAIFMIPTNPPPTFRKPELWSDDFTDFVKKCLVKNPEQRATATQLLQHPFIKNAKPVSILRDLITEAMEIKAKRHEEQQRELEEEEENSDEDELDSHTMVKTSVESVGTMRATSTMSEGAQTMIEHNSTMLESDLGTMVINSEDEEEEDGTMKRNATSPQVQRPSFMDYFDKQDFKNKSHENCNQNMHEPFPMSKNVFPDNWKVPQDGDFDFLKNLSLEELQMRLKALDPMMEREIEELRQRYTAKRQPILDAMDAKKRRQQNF

SRC Catalytic Domain [13] = target: T13, SRC Catalytic Domain (Homo sapiens, UniProt P12931); conditions: read-out: ATP Km; SRC CD
[14] = target: T14, SRC Catalytic Domain+SH2+SH3 (Homo sapiens, UniProt P12931); conditions: read-out: ATP Km; SRC CD+SH2/3
AKT3 Catalytic Domain [15] = target: T1, AKT3 Catalytic Domain; assay: Differential Scanning Fluorimetry (DSF) Tm shift; format: binding; conditions: 2 µM protein, 10 µM inhibitor, average of 3 experiments, each in duplicate
CDK2 + Cyclin A [16] = target: T2, CDK2 + Cyclin A; assay: Differential Scanning Fluorimetry (DSF) Tm shift; format: binding; conditions: CDK2 + Cyclin A; 2 µM protein, 10 µM inhibitor; average of 3 experiments, each in duplicate
CDK2 + Cyclin E [17] = target: T3, CDK2 + Cyclin E; assay: Differential Scanning Fluorimetry (DSF) Tm shift; format: binding; conditions: CDK2 + Cyclin E; 2 µM protein, 10 µM inhibitor; average of 3 experiments, each in duplicate
CHK2 Catalytic Domain [18] = target: T4, CHK2 Catalytic Domain; assay: Differential Scanning Fluorimetry (DSF) Tm shift; format: binding; conditions: 2 µM protein, 10 µM inhibitor, average of 3 experiments, each in duplicate
DMPK Catalytic Domain [19] = target: T5, DMPK Catalytic Domain; assay: Differential Scanning Fluorimetry (DSF) Tm shift; format: binding; conditions: 2 µM protein, 10 µM inhibitor, average of 3 experiments, each in duplicate
FAK2 Catalytic Domain = target: T15, FAK2 Catalytic Domain (Homo sapiens, UniProt Q14289); assay: Differential Scanning Fluorimetry (DSF) Tm shift; format: binding; conditions: 2 µM protein, 10 µM inhibitor, average of 3 experiments, each in duplicate
T15 construct: For all of them, we expressed and purified the catalytic domain separately; His-tag; made in house; host or cells: Escherichia coli

FES Catalytic Domain+SH2 [20] = target: T7, FES Catalytic Domain+SH2; assay: Differential Scanning Fluorimetry (DSF) Tm shift; format: binding; conditions: 2 µM protein, 10 µM inhibitor, average of 3 experiments, each in duplicate
FES Catalytic Domain [21] = target: T6, FES Catalytic Domain; assay: Differential Scanning Fluorimetry (DSF) Tm shift; format: binding; conditions: 2 µM protein, 10 µM inhibitor, average of 3 experiments, each in duplicate
[22] = target: T9, PAK4 Catalytic Domain+PBD; assay: Differential Scanning Fluorimetry (DSF) Tm shift; format: binding; conditions: 2 µM protein, 10 µM inhibitor, average of 3 experiments, each in duplicate
PAK4 Catalytic Domain [23] = target: T8, PAK4 Catalytic Domain; assay: Differential Scanning Fluorimetry (DSF) Tm shift; format: binding; conditions: 2 µM protein, 10 µM inhibitor, average of 3 experiments, each in duplicate
PAK7 Catalytic Domain [24] = target: T10, PAK7 Catalytic Domain; assay: Differential Scanning Fluorimetry (DSF) Tm shift; format: binding; conditions: 2 µM protein, 10 µM inhibitor, average of 3 experiments, each in duplicate
[25] = target: T14, SRC Catalytic Domain+SH2+SH3; assay: Differential Scanning Fluorimetry (DSF) Tm shift; format: binding; conditions: 2 µM protein, 10 µM inhibitor, average of 3 experiments, each in duplicate
[26] = target: T12, STK3 Catalytic domain+SARAH; assay: Differential Scanning Fluorimetry (DSF) Tm shift; format: binding; conditions: 2 µM protein, 10 µM inhibitor, average of 3 experiments, each in duplicate
STK3 Catalytic Domain [27] = target: T11, STK3 Catalytic Domain; assay: Differential Scanning Fluorimetry (DSF) Tm shift; format: binding; conditions: 2 µM protein, 10 µM inhibitor, average of 3 experiments, each in duplicate
SRC Catalytic Domain [28] = target: T13, SRC Catalytic Domain; assay: Differential Scanning Fluorimetry (DSF) Tm shift; format: binding; parameters: For all of them, we expressed and purified the catalytic domain separately; His-tag; made in house; host or cells: Escherichia coli; conditions: 2 µM protein, 10 µM inhibitor, average of 3 experiments, each in duplicate

T6 sequence (P07332 561-822 limits assumed): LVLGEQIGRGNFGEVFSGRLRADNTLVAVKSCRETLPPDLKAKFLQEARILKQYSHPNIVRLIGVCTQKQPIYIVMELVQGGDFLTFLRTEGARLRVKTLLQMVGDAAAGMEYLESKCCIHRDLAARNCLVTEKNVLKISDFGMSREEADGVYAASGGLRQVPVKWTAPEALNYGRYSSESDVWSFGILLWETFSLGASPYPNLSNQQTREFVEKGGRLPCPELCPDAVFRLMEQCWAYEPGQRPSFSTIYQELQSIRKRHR
T4 sequence (O96017 220-486 limits assumed): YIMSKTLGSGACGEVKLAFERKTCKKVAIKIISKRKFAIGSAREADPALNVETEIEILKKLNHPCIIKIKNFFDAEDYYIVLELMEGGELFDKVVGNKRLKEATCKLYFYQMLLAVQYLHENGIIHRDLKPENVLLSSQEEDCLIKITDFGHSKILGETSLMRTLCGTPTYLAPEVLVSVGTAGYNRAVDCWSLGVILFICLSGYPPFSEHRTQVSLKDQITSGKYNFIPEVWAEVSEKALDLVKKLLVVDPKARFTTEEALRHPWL
T15 sequence (Q14289 425-683 limits assumed): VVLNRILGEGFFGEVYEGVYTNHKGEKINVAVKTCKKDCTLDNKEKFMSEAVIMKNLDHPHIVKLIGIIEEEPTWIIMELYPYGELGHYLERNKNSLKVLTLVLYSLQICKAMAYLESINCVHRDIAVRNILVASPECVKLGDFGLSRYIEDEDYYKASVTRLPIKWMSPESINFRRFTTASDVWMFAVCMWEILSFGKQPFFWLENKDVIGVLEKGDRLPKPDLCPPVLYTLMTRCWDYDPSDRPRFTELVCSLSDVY
T7 sequence (P07332 448-822 limits assumed): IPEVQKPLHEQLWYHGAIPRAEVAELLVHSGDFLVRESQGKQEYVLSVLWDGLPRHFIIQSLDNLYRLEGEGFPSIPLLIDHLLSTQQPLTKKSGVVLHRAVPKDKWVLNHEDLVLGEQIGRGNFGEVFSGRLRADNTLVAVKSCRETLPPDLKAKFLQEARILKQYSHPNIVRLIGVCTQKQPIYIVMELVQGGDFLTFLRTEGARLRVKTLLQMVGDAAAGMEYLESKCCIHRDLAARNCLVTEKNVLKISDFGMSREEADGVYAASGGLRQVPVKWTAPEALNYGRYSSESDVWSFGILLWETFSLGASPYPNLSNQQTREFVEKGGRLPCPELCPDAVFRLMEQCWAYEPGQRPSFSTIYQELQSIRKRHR
T8 sequence (O96013 321-572 limits assumed): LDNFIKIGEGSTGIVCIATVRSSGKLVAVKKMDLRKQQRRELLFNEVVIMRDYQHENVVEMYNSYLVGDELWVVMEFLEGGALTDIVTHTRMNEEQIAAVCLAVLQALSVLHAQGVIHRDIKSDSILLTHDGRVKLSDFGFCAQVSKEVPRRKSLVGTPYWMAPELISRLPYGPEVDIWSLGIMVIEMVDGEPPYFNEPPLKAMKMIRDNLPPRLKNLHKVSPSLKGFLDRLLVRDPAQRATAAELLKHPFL
T9 sequence (O96013 whole entry, the tested form may be a part): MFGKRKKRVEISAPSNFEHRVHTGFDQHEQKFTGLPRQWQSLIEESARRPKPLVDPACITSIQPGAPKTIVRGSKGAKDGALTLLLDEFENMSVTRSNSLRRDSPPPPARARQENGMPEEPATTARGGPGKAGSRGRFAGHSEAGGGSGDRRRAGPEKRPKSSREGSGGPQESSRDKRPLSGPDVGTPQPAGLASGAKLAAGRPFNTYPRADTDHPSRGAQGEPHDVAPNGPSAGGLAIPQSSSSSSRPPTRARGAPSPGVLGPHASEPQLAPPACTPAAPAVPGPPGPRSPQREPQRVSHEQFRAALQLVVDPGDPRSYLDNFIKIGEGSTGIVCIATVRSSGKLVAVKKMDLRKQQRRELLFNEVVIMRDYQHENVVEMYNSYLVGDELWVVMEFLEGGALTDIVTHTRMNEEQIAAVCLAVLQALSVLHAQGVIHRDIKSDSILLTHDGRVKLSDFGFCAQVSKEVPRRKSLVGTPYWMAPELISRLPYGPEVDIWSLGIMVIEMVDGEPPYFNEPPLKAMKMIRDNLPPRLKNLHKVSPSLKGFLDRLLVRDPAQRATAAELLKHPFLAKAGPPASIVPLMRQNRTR
T1 sequence (Q9Y243 122-479): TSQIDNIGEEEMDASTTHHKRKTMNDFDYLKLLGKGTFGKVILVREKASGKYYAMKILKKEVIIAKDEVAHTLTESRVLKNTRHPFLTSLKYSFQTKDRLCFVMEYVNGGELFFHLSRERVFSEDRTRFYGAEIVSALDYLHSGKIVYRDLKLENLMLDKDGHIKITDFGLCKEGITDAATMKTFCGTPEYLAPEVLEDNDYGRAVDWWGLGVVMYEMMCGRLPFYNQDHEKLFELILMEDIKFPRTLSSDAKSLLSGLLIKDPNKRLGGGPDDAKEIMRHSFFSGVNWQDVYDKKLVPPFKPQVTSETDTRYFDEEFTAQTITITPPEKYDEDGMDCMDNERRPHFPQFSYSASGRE
T10 sequence (Q9P286 449-700 limits assumed): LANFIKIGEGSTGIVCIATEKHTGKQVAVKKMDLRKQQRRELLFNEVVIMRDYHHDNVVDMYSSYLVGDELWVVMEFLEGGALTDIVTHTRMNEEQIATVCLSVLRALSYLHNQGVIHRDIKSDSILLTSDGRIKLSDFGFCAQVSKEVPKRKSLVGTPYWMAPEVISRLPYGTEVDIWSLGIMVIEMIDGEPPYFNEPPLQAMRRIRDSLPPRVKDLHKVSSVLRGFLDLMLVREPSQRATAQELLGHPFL

Row | Compound | Melting temperature (Tm) shift (AKT3 Catalytic Domain [15]) | Melting temperature (Tm) shift (CDK2 + Cyclin A [16]) | Melting temperature (Tm) shift (CDK2 + Cyclin E [17]) | Melting temperature (Tm) shift (CHK2 Catalytic Domain [18]) | Melting temperature (Tm) shift (DMPK Catalytic Domain [19]) | Melting temperature (Tm) shift (FAK2 Catalytic Domain) | Melting temperature (Tm) shift (FES Catalytic Domain+SH2 [20]) | Melting temperature (Tm) shift (FES Catalytic Domain [21]) | Melting temperature (Tm) shift [22] | Melting temperature (Tm) shift (PAK4 Catalytic Domain [23]) | Melting temperature (Tm) shift (PAK7 Catalytic Domain [24]) | Melting temperature (Tm) shift [25] | Melting temperature (Tm) shift [26] | Melting temperature (Tm) shift (STK3 Catalytic Domain [27]) | Melting temperature (Tm) shift (SRC Catalytic Domain [28]) | other results
1 | Nc1ncnc2c1ncn2[C@@H]1O[C@H](COP(=O)(O)OP(=O)(O)OP(=O)(O)O)[C@@H](O)[C@H]1O [ATP] |  |  |  |  |  |  |  |  |  |  |  |  |  |  |  | Km (AKT3 Catalytic Domain [1]): 564 ± 36 µM; Km (CDK2 + Cyclin A [2]): 238 ± 12 µM; Km (CDK2 + Cyclin E [3]): 145 ± 4 µM; Km (CHK2 Catalytic Domain [4]): 130 ± 13 µM; Km (DMPK Catalytic Domain [5]): 470 ± 69 µM; Km (FES Catalytic Domain [6]): 49 ± 11 µM; Km (FES Catalytic Domain+SH2 [7]): 53 ± 13 µM; Km (PAK4 Catalytic Domain [8]): 11 ± 1 µM; Km [9]: 11 ± 1 µM; Km (PAK7 Catalytic Domain [10]): 5 ± 0.4 µM; Km (STK3 Catalytic Domain [11]): 140 ± 12 µM; Km [12]: 66 ± 2 µM; Km (SRC Catalytic Domain [13]): 134 ± 16 µM; Km [14]: 226 ± 33 µM
2 | Cn1cc(/C=C2\C(=O)Nc3ccc(S(N)(=O)=O)cc32)c2ccccc21 [Syk Inhibitor] | 0.0 degrees Celcius | 0.7 degrees Celcius | 0.4 degrees Celcius | 5.2 degrees Celcius | 0.9 degrees Celcius | 0.4 degrees Celcius | 0.4 degrees Celcius | 2.0 degrees Celcius | 2.2 degrees Celcius | 1.7 degrees Celcius | 0.9 degrees Celcius | 0.2 degrees Celcius | 2.0 degrees Celcius | 2.0 degrees Celcius | 0.1 degrees Celcius | 
3 | N#Cc1cnc2cnc(NCc3cccnc3)cc2c1Nc1ccc(F)c(Cl)c1 [Tpl2 Kinase Inhibitor] | 0.1 degrees Celcius | 0.2 degrees Celcius | 0.5 degrees Celcius | 0.3 degrees Celcius | 1.4 degrees Celcius | 0.5 degrees Celcius | 0.2 degrees Celcius | 0.0 degrees Celcius | 0.6 degrees Celcius | 0.5 degrees Celcius | 0.1 degrees Celcius | 0.1 degrees Celcius | 0.4 degrees Celcius | 0.2 degrees Celcius | 0.2 degrees Celcius | 
4 | Chk2 Inhibitor | 0.0 degrees Celcius | 2.9 degrees Celcius | 1.9 degrees Celcius | 8.7 degrees Celcius | 1.4 degrees Celcius | 2.6 degrees Celcius | 0.6 degrees Celcius | 3.0 degrees Celcius | 0.6 degrees Celcius | 0.7 degrees Celcius | 0.3 degrees Celcius | 0.3 degrees Celcius | 3.4 degrees Celcius | 2.3 degrees Celcius | 0.2 degrees Celcius | 
5 | DNA-PK Inhibitor V | 0.1 degrees Celcius | 0.0 degrees Celcius | 0.2 degrees Celcius | 0.2 degrees Celcius | 0.6 degrees Celcius | 0.3 degrees Celcius | 0.3 degrees Celcius | 0.1 degrees Celcius | 0.5 degrees Celcius | 0.4 degrees Celcius | 0.0 degrees Celcius | 0.0 degrees Celcius | 0.5 degrees Celcius | 0.0 degrees Celcius | 0.2 degrees Celcius | 
6 | Wee1/Chk1 Inhibitor | 0.1 degrees Celcius | 0.2 degrees Celcius | 0.8 degrees Celcius | 5.9 degrees Celcius | 2.2 degrees Celcius | 0.3 degrees Celcius | 0.2 degrees Celcius | 0.2 degrees Celcius | 1.5 degrees Celcius | 0.7 degrees Celcius | 1.0 degrees Celcius | 0.1 degrees Celcius | 3.7 degrees Celcius | 1.1 degrees Celcius | 0.1 degrees Celcius | 
